Data as given in ChEMBL document CHEMBL1156658, “Antifungal cyclic depsipeptide, eujavanicin A, isolated from Eupenicillium javanicum” (2008).
Active and inactive are the calls of the source. The calls are words filed in the database; no cut-off is given here. Non-standard residues stand in square brackets, D forms with d. Residues, ends and D or L forms follow the SMILES beside them. NMeI = CC[C@H](C)[C@H](NC)C(=O)O; NMeD = CN[C@@H](CC(=O)O)C(=O)O; NMeV = CN[C@H](C(=O)O)C(C)C; Pip = O=C(O)[C@@H]1CCCCN1; Lac = C[C@H](O)C(=O)O

What was measured:
Bacillus subtilis [1] = assay: Antibacterial activity against Bacillus subtilis NBRC3134 at 100 ug/disk by paper disk method; assay type: functional, organism-based
Candida albicans [2] = assay: Antimicrobial activity against Candida albicans; assay type: functional, organism-based
Escherichia coli [3] = assay: Antibacterial activity against Escherichia coli NBRC14237 at 100 ug/disk by paper disk method; assay type: functional, organism-based
Staphylococcus aureus [4] = assay: Antibacterial activity against Staphylococcus aureus […] at 100 ug/disk by paper disk method; assay type: functional, organism-based
Cryptococcus neoformans [5] = assay: Antimicrobial activity against Cryptococcus neoformans; assay type: functional, organism-based
Aspergillus fumigatus [6] = assay: Antifungal activity against Aspergillus fumigatus; assay type: functional, organism-based
Aspergillus niger [7] = assay: Antifungal activity against Aspergillus niger; assay type: functional, organism-based
Salmonella enteritidis [8] = assay: Antibacterial activity against Salmonella enteritidis NBRC3313 at 100 ug/disk by paper disk method; assay type: functional, organism-based; conditions: Salmonella enterica subsp. enterica serovar Enteritidis
Staphylococcus aureus [9] = assay: Antibacterial activity against Staphylococcus aureus […] assessed as zone of inhibition at 50 ug/disk by paper disk method; assay type: functional, organism-based
Aspergillus fumigatus [10] = assay: Antifungal activity against Aspergillus fumigatus assessed as zone of inhibition at 6.25 ug/disk by paper disk method; assay type: functional; conditions: read-out: IZ
Escherichia coli [11] = assay: Antibacterial activity against Escherichia coli NBRC14237 assessed as zone of inhibition at 50 ug/disk by paper disk method; assay type: functional, organism-based
Candida albicans [12] = assay: Antimicrobial activity against Candida albicans at 50 ug/disk by paper disk method; assay type: functional, organism-based
Salmonella enteritidis [13] = assay: Antibacterial activity against Salmonella enteritidis NBRC3313 assessed as zone of inhibition at 50 ug/disk by paper disk method; assay type: functional, organism-based; conditions: Salmonella enterica subsp. enterica serovar Enteritidis
Aspergillus niger [14] = assay: Antifungal activity against Aspergillus niger at 50 ug/disk by paper disk method; assay type: functional, organism-based
Bacillus subtilis [15] = assay: Antibacterial activity against Bacillus subtilis NBRC3134 assessed as zone of inhibition at 50 ug/disk by paper disk method; assay type: functional, organism-based
Cryptococcus neoformans [16] = assay: Antimicrobial activity against Cryptococcus neoformans at 50 ug/disk by paper disk method; assay type: functional, organism-based

CC[C@H](C)[C@H]1C(=O)N[C@@H](CC(=O)OC)C(=O)N(C)[C@@H](C(C)C)C(=O)N[C@@H](CC(C)C)C(=O)O[C@@H](C)C(=O)N2CCCC[C@H]2C(=O)N(C)[C@@H](C(C)C)C(=O)N[C@@H](C(C)C)C(=O)N(C)[C@@H](CC(=O)OC)C(=O)N(C)[C@@H]([C@@H](C)CC)C(=O)N1C (cyclo(D(OMe)[NMeV]L[Lac][Pip][NMeV]V[NMeD](OMe)[NMeI][NMeI]))
Activity (Bacillus subtilis [1]): inactive
Activity (Candida albicans [2]): inactive
Activity (Escherichia coli [3]): inactive
Activity (Staphylococcus aureus [4]): inactive
Activity (Cryptococcus neoformans [5]): inactive
Activity (Aspergillus fumigatus [6]): inactive
Activity (Aspergillus niger [7]): inactive
Activity (Salmonella enteritidis [8]): inactive

CC[C@H](C)[C@H]1C(=O)N[C@@H](CC(=O)O)C(=O)N(C)[C@@H](C(C)C)C(=O)N[C@@H](CC(C)C)C(=O)O[C@@H](C)C(=O)N2CCCC[C@H]2C(=O)N(C)[C@@H](C(C)C)C(=O)N[C@@H](C(C)C)C(=O)N(C)[C@@H](CC(=O)O)C(=O)N(C)[C@@H]([C@@H](C)CC)C(=O)N1C [EUJAVANICIN A] (cyclo(D[NMeV]L[Lac][Pip][NMeV]V[NMeD][NMeI][NMeI]))
Activity (Bacillus subtilis [1]): inactive
Activity (Escherichia coli [3]): inactive
Activity (Staphylococcus aureus [4]): inactive
Activity (Staphylococcus aureus [9]): inactive
zone of inhibition at 6.25 µg/disc (Aspergillus fumigatus [10]): 23 mm
Activity (Escherichia coli [11]): inactive
Activity (Candida albicans [12]): inactive
Activity (Salmonella enteritidis [13]): inactive
Activity (Aspergillus niger [14]): inactive
Activity (Bacillus subtilis [15]): inactive
Activity (Salmonella enteritidis [8]): inactive
Activity (Cryptococcus neoformans [16]): inactive
